# Source: US9321718B2 (CHROMA THERAPEUTICS LTD., priority 2010, dated 2016)
# Target: T1, human recombinant his-tagged HSP90α (Homo sapiens, UniProt P07900)
# T1 construct: purchased Prospec Technogene #HSP90
# Assay: HSP90 enzyme assay (HTRF, competition with biotinylated Geldanamycin)
# Type: binding
# Conditions: IC50 range; read-out: Enzyme Assay
# Excerpt: An HTRF (homogeneous time resolved fluorescence) assay is used to measure the interaction of the compounds with HSP90. The assay measures binding of biotinylated Geldanamycin (bio-GM; Biomol, #EI-341, lot: A9199a) to human recombinant his-tagged HSP90α (HSP90; Prospec Technogene, #HSP90, lot: 260HSP9001). A signal is generated by fluorescence resonance energy transfer from an Europium-cryptate labeled anti-his antibody (anti-his-K; Cisbio International, #61HISKLA, lot: 33V) via the HSP90-GM-biotin complex to a fluorescence acceptor (allophycocyanin) linked to streptavidin (SA-XL; Cisbio International, #610SAXLB, lot: 089).
# Unlabeled GM or compounds compete with the bio-GM for binding to HSP90 resulting in reduced fluorescence energy transfer/assay signal.
# A preformed (1 hour incubation) complex of HSP90 with the anti-his-K is added to the compound solution in a 384 well microplate (Corning, #3710) and incubated for 15 minutes. A preformed (1 hour incubation) complex of bio-GM with the SA-XL is added to the wells and incubated for 20 hours. All incubations are performed at room temperature. The final assay volume is 50 μl/well. The final concentrations in the assay are: 50 mM Hepes pH 7.3, 50 mM NaCl, 100 mM KF, 1 mM EDTA, 1 mM DTT, 0.1% Triton-X-100, […] HSP90, 40 nM SA-XL, 40 nM bio-GM. Test compounds are dissolved in DMSO, prediluted in assay buffer and tested at a final concentration between 5000 nM and 0.3 nM. The resulting DMSO concentration is 0.5% and included in all controls. High controls are without test compounds, low controls without test compounds, without HSP90 and without bio-GM. As a reference inhibitor unlabeled GM is used in the same concentrations as the test compounds.
# Inhibition is calculated compared to the assay controls using an Excel spreadsheet (Microsoft). IC50 values are calculated by non-linear least squares fitting to the standard dose-response model using GraphPad Prism (GraphPad Software Inc).
row,Molecule,IC50
1,"tert-butyl N-[2-(1-{[2,4-dihydroxy-5-(propan-2-yl)phenyl]carbonyl}piperidin-4-yl)ethyl]-L-serinate [Example 52]",< 0.1 µM
2,"CC(C)c1cc(C(=O)N2CCC(CCN[C@H](C(=O)O)c3ccccc3)CC2)c(O)cc1O [Example 124, (2S)-{[2-(1-{[2,4-dihydroxy-5-(propan-2-yl)phenyl]carbonyl}piperidin-4-yl)ethyl]amino}(phenyl)ethanoic acid]",< 0.1 µM
3,"CC(C)c1cc(C(=O)N2CCC(CCN[C@@H](Cc3ccccc3)C(=O)O)CC2)c(O)cc1O [Example 111, N-[2-(1-{[2,4-dihydroxy-5-(propan-2-yl)phenyl]carbonyl}piperidin-4-yl)ethyl]-L-phenylalanine]",< 0.1 µM
4,"CC(C)c1cc(C(=O)N2CCC(CN[C@@H](Cc3ccccc3)C(=O)O)CC2)c(O)cc1O [Example 107, N-[(1-{[2,4-dihydroxy-5-(propan-2-yl)phenyl]carbonyl}piperidin-4-yl)methyl]-L-phenylalanine]",< 0.1 µM
5,"CC(C)c1cc(C(=O)N2CCC(CCN[C@H](C(=O)O)C(C)C)CC2)c(O)cc1O [Example 121, N-[2-(1-{[2,4-dihydroxy-5-(propan-2-yl)phenyl]carbonyl}piperidin-4-yl)ethyl]-L-valine]",< 0.1 µM
6,CC(C)c1cc(C(=O)N2CCC(CN[C@@H](COC(C)(C)C)C(=O)O)CC2)c(O)cc1O [Example 119],< 0.1 µM
7,"CC(C)c1cc(C(=O)N2Cc3ccc(CN[C@@H](C)C(=O)O)cc3C2)c(O)cc1O [Example 82, N-[(2-{[2,4-dihydroxy-5-(propan-2-yl)phenyl]carbonyl}-2,3-dihydro-4H-isoindol-5-yl)methyl]-L-alanine]",< 0.1 µM
8,"N-{3-[(1-{[2,4-dihydroxy-5-(propan-2-yl)phenyl]carbonyl}piperidin-4-yl)amino]propyl}-L-leucine [Example 127]",< 0.1 µM
9,"CC(C)C[C@H](NCCCc1ccc2c(c1)CN(C(=O)c1cc(C(C)C)c(O)cc1O)C2)C(=O)O [Example 80, N-[3-(2-{[2,4-dihydroxy-5-(propan-2-yl)phenyl]carbonyl}-2,3-dihydro-1H-isoindol-5-yl)propyl]-L-leucine]",< 0.1 µM
10,"CC(C)c1cc(C(=O)N2CCC(N[C@@H](C)C(=O)O)CC2)c(O)cc1O [Example 100, N-(1-{[2,4-dihydroxy-5-(propan-2-yl)phenyl]carbonyl}piperidin-4-yl)-L-alanine]",< 0.1 µM

# The remaining lines, values ahead:
row,IC50,Molecule
1,< 0.1 µM,"CC(C)c1cc(C(=O)N(C)Cc2ccc(CN[C@H](C(=O)O)c3ccccc3)cc2)c(O)cc1O [Example 85, (2S)-[(4-{[{[2,4-dihydroxy-5-(propan-2-yl)phenyl]carbonyl}(methyl)amino]methyl}benzyl)amino](phenyl)ethanoic acid]"
2,< 0.1 µM,"CC(C)C[C@H](NC1CCN(C(=O)c2cc(C(C)C)c(O)cc2O)C1)C(=O)O (stereo partly drawn) [Example 95, N-(1-{[2,4-dihydroxy-5-(propan-2-yl)phenyl]carbonyl}pyrrolidin-3-yl)-L-leucine]"
3,< 0.1 µM,"CC(C)C[C@H](NCC1CCN(C(=O)c2cc(C(C)C)c(O)cc2O)CC1)C(=O)O [Example 103, N-[(1-{[2,4-dihydroxy-5-(propan-2-yl)phenyl]carbonyl}piperidin-4-yl)methyl]-L-leucine]"
4,< 0.1 µM,"CC(C)c1cc(C(=O)N2Cc3ccc(CCCNC4(C(=O)O)CCCC4)cc3C2)c(O)cc1O [Example 90, 1-{[3-(2-{[2,4-dihydroxy-5-(propan-2-yl)phenyl]carbonyl}-2,3-dihydro-1H-isoindol-5-yl)propyl]amino}cyclopentanecarboxylic acid]"
5,< 0.1 µM,"CC(C)c1cc(C(=O)N2CCC(CNC(C)(C)C(=O)O)CC2)c(O)cc1O [Example 117, N-[(1-{[2,4-dihydroxy-5-(propan-2-yl)phenyl]carbonyl}piperidin-4-yl)methyl]-2-methylalanine]"
6,< 0.1 µM,"CC(C)c1cc(C(=O)N2CCC(N[C@@H](Cc3ccccc3)C(=O)O)CC2)c(O)cc1O [Example 101, N-(1-{[2,4-dihydroxy-5-(propan-2-yl)phenyl]carbonyl}piperidin-4-yl)-L-phenylalanine]"
